Reference: US12172983B2, “EGFR inhibitors” (Blueprint Medicines Corporation, priority 2019, dated 2024)
Read-outs that look alike come from different tables or passages of the source.

Assays:
EGFR (L858R T790M C797S) = target: T1, EGFR (L858R T790M C797S) (Homo sapiens, UniProt P00533, C797S/L858R/T790M); experiment: Biochemical EGFR inhibition assay (Caliper mobility shift), EGFR LRTMCS mutant; conditions: inhibitory activity against EGFR LRTMCS mutant; apparent IC50; read-out: Ext Enz LRTMCS
T1 construct: purchased SignalChem E10-122VG
T1 sequence (P00533 25-1210 T790M/C797S/L858R): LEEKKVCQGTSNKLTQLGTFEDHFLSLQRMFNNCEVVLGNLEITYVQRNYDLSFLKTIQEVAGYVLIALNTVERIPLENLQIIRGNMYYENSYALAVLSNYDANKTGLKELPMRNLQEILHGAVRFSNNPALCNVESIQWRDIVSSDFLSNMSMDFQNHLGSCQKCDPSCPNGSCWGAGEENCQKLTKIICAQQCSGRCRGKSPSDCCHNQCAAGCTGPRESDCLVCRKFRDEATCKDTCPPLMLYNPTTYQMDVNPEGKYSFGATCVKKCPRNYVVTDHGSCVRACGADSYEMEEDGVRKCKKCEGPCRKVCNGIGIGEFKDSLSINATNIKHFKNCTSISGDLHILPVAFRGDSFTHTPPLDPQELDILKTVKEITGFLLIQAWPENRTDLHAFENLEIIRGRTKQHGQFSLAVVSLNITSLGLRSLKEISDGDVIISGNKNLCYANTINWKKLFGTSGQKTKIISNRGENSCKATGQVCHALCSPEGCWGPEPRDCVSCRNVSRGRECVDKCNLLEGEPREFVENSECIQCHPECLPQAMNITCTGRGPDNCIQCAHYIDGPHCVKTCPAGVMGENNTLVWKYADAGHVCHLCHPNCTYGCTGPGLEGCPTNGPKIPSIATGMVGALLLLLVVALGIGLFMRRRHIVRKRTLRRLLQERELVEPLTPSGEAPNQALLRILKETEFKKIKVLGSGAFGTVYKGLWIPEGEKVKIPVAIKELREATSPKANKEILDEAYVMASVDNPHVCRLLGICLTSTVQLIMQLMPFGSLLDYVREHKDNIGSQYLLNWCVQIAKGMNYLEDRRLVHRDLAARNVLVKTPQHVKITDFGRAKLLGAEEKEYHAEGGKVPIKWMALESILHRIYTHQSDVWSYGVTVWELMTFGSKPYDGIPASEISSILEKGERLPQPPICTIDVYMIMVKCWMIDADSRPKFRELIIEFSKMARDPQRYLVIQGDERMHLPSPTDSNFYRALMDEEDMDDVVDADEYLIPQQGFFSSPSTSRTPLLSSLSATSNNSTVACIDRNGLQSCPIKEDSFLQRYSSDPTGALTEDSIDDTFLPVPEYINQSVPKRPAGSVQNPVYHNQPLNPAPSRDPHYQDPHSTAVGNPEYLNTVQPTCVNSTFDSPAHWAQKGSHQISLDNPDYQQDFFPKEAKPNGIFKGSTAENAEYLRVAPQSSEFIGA
How it was run: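 Kinase reactions proceed at 25° C. to 10%–20% conversion of total peptide, are terminated with 35 mM EDTA, and the phosphopeptide is resolved from substrate by electrophoretic mobility shift. Apparent IC50 values come from plotting percent activity against log compound concentration.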

[1] = test system: phosphorylation of EGFR (Tyr1068) in NCI-H1975 cell line that harbors the EGFR L858R T790M mutations; experiment: NCI-H1975 pEGFR AlphaLISA assay; type: cell-based; conditions: 4-5 hours incubation, read-out: Ext pEGFR H1975
How it was run: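 Phospho-EGFR Tyr1068 AlphaLISA readout: lysates taken from compound-treated H1975 cells (L858R T790M EGFR) after a 4-5 h exposure at 37 °C. Cells had adhered overnight beforehand. IC50 derived by plotting % pEGFR inhibition against log compound concentration.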

[2] = inhibition of phosphorylation of mutant EGFR in NCI-H1975 cells
[3] = Homo sapiens, NCI-H1975, inhibition of phosphorylation of mutant EGFR in NCI-H1975 cells

Row | Structure (SMILES) | IC50 (EGFR (L858R T790M C797S)) [nM] | IC50 [1, 2] [nM] | IC50 [1, 3] [nM]
1 | CC(C)c1cnc(N2CC(CS(C)(=O)=O)C2)c2cnc(Nc3ccnc(N4C[C@H](F)[C@@H](F)C4)n3)cc12 (single isomer, unassigned) [Compound 9, N-{2-[(3R,4R)-3,4-difluoropyrrolidin-1-yl]pyrimidin-4-yl}-8-[3-(methanesulfonylmethyl)azetidin-1-yl]-5-(propan-2-yl)-2,7-naphthyridin-3-amine or N-{2-[(3S,4S)-3,4-difluoropyrrolidin-1-yl]pyrimidin-4-yl}-8-[3-(methanesulfonylmethyl)azetidin-1-yl]-5-(propan-2-yl)-2,7-naphthyridin-3-amine] | ≤ 15 | 10.1 to 20 | 
2 | C[C@@H]1[C@@H](CS(C)(=O)=O)CN1c1ccc(F)c2cc(Nc3ccnc(N4CC[C@@H](O)[C@@](C)(F)C4)n3)ncc12 (single isomer, unassigned) [Compound 33] | ≤ 15 |  | ≤ 10
3 | CO[C@@H]1CCN(c2nccc(Nc3cc4c(C(C)C)ccc(N5C[C@H](CS(C)(=O)=O)[C@H]5C)c4cn3)n2)C[C@@H]1O (single isomer, unassigned) [Compound 93, (3S,4R)-1-(4-(5-isopropyl-8-((2R,3S)-2-methyl-3-(methylsulfonylmethyl)azetidin-1-yl)isoquinolin-3-ylamino)pyrimidin-2-yl)-4-methoxypiperidin-3-ol or (3R,4S)-1-(4-(5-isopropyl-8-((2R,3S)-2-methyl-3-(methylsulfonylmethyl)azetidin-1-yl)isoquinolin-3-ylamino)pyrimidin-2-yl)-4-methoxypiperidin-3-ol] | ≤ 15 |  | ≤ 10
4 | CC(C)c1ccc(N2C[C@H](CS(C)(=O)=O)[C@H]2C)c2cnc(Nc3ccnc(N4CC[C@](C)(O)[C@H](O)C4)n3)cc12 (single isomer, unassigned) [Compound 101, (4R)-1-[4-({8-[(2R,3S)-3-(methanesulfonylmethyl)-2-methylazetidin-1-yl]-5-(propan-2-yl)isoquinolin-3-yl}amino)pyrimidin-2-yl]-4-methylpiperidine-3,4-diol or (3S,4R)-1-[4-({8-[(2R,3S)-3-(methanesulfonylmethyl)-2-methylazetidin-1-yl]-5-(propan-2-yl)isoquinolin-3-yl}amino)pyrimidin-2-yl]-4-methylpiperidine-3,4-diol] | ≤ 15 | 10.1 to 20 | 
5 | CC(C)c1ccc(N2C[C@H](CS(C)(=O)=O)[C@H]2C)c2cnc(Nc3ccnc(N4CC[C@H](N)C(F)(F)C4)n3)cc12 (single isomer, unassigned) [Compound 151, N-{2-[(4S)-4-amino-3,3-difluoropiperidin-1-yl]pyrimidin-4-yl}-8-[(2R,3S)-3-(methanesulfonylmethyl)-2-methylazetidin-1-yl]-5-(propan-2-yl)isoquinolin-3-amine or N-{2-[(4R)-4-amino-3,3-difluoropiperidin-1-yl]pyrimidin-4-yl}-8-[(2R,3S)-3-(methanesulfonylmethyl)-2-methylazetidin-1-yl]-5-(propan-2-yl)isoquinolin-3-amine] | ≤ 15 |  | ≤ 10
6 | CO[C@@H]1[C@H](F)CN(c2nccc(Nc3cc4c(C(C)C)ccc(N5C[C@H](CS(C)(=O)=O)[C@H]5C)c4cn3)n2)C[C@@H]1O (single isomer, unassigned) [Compound 202, (3S,4S,5R)-5-fluoro-1-[4-({8-[(2R,3S)-3-(methanesulfonylmethyl)-2-methylazetidin-1-yl]-5-(propan-2-yl)isoquinolin-3-yl}amino)pyrimidin-2-yl]-4-methoxypiperidin-3-ol or (3R,4R,5S)-5-fluoro-1-[4-({8-[(2R,3S)-3-(methanesulfonylmethyl)-2-methylazetidin-1-yl]-5-(propan-2-yl)isoquinolin-3-yl}amino)pyrimidin-2-yl]-4-methoxypiperidin-3-ol] | 20.1 to 30 |  | 10.1 to 20
7 | CO[C@@H]1CCN(c2nccc(Nc3cc4c(C(C)C)ccc(N5CC([C@H](CN)S(C)(=O)=O)C5)c4cn3)n2)C[C@@H]1F (single isomer, unassigned) [Compound 193, 8-{3-[(1R)-2-amino-1-methanesulfonylethyl]azetidin-1-yl}-N-{2-[(3S,4R)-3-fluoro-4-methoxypiperidin-1-yl]pyrimidin-4-yl}-5-(propan-2-yl)isoquinolin-3-amine or 8-{3-[(1S)-2-amino-1-methanesulfonylethyl]azetidin-1-yl}-N-{2-[(3S,4R)-3-fluoro-4-methoxypiperidin-1-yl]pyrimidin-4-yl}-5-(propan-2-yl)isoquinolin-3-amine] | ≤ 15 |  | ≤ 10
8 | CO[C@H]1CCN(c2nccc(Nc3cc4c(C(C)C)ccc(N5C[C@H](CS(C)(=O)=O)[C@H]5C)c4cn3)n2)C[C@@H]1CO (single isomer, unassigned) [Compound 172, [(3R,4S)-1-[4-({8-[(2R,3S)-3-(methanesulfonylmethyl)-2-methylazetidin-1-yl]-5-(propan-2-yl)isoquinolin-3-yl}amino)pyrimidin-2-yl]-4-methoxypiperidin-3-yl]methanol or [(3S,4R)-1-[4-({8-[(2R,3S)-3-(methanesulfonylmethyl)-2-methylazetidin-1-yl]-5-(propan-2-yl)isoquinolin-3-yl}amino)pyrimidin-2-yl]-4-methoxypiperidin-3-yl]methanol] | ≤ 15 |  | 20.1 to 30
9 | CO[C@@H]1CCN(c2nccc(Nc3cc4c(C(C)C)ccc(N5CC(CS(C)(=O)=O)C5)c4cn3)n2)CC1(F)F (single isomer, unassigned) [Compound 159] | 15.1 to 20 |  | 20.1 to 30
10 | CCS(=O)(=O)C[C@H]1CN(c2ncc(C(C)C)c3cc(Nc4ccnc(N5CC[C@](C)(O)[C@H](F)C5)n4)ncc23)[C@@H]1C (single isomer, unassigned) [Compound 191] | ≤ 15 |  | ≤ 10
11 | CO[C@]1(C)CN(c2nccc(Nc3cc4c(C(C)C)ccc(N5CC(CS(C)(=O)=O)C5)c4cn3)n2)CC[C@@H]1O (single isomer, unassigned) [Compound 95, (3S,4R)-1-[4-({8-[3-(methanesulfonylmethyl)azetidin-1-yl]-5-(propan-2-yl)isoquinolin-3-yl}amino)pyrimidin-2-yl]-3-methoxy-3-methylpiperidin-4-ol or (3R,4S)-1-[4-({8-[3-(methanesulfonylmethyl)azetidin-1-yl]-5-(propan-2-yl)isoquinolin-3-yl}amino)pyrimidin-2-yl]-3-methoxy-3-methylpiperidin-4-ol] | 20.1 to 30 | 10.1 to 20 | 
12 | CC(C)c1ccc(N2C[C@H](CS(C)(=O)=O)[C@H]2C)c2cnc(Nc3ccnc(N4CC[C@H]5COC[C@H]54)n3)cc12 (single isomer, unassigned) [Compound 40] | ≤ 15 |  | ≤ 10

Other lines, results leading:

Row | IC50 (EGFR (L858R T790M C797S)) [nM] | IC50 [1, 2] [nM] | IC50 [1, 3] [nM] | Structure (SMILES)
13 | ≤ 15 |  | ≤ 10 | CC(C)c1ccc(N2C[C@H](CS(C)(=O)=O)[C@H]2C)c2cnc(Nc3ccnc(N4CC[C@@H](OCCO)[C@@H](F)C4)n3)cc12 [Compound 229, 2-((3S,4R)-3-fluoro-1-(4-(5-isopropyl-8-((2R,3S)-2-methyl-3-(methylsulfonylmethyl)azetidin-1-yl)isoquinolin-3-ylamino)pyrimidin-2-yl)piperidin-4-yloxy)ethanol]
14 | ≤ 15 |  | ≤ 10 | CCS(=O)(=O)CC1CN(c2ccc(C(C)C)c3cc(Nc4ccnc(N5CC[C@H](OC)[C@H](F)C5)n4)ncc23)C1 [Compound 262, 8-{3-[(ethanesulfonyl)methyl]azetidin-1-yl}-N-{2-[(3R,4S)-3-fluoro-4-methoxypiperidin-1-yl]pyrimidin-4-yl}-5-(propan-2-yl)isoquinolin-3-amine]
15 | ≤ 15 |  | ≤ 10 | CC(C)c1cnc(N2C[C@H](CS(C)(=O)=O)[C@H]2C)c2cnc(Nc3ccnc(N4CC[C@@](C)(O)C(F)(F)C4)n3)cc12 (single isomer, unassigned) [Compound 215, (4R)-3,3-difluoro-1-[4-({8-[(2R,3S)-3-(methanesulfonylmethyl)-2-methylazetidin-1-yl]-5-(propan-2-yl)-2,7-naphthyridin-3-yl}amino)pyrimidin-2-yl]-4-methylpiperidin-4-ol or (4S)-3,3-difluoro-1-[4-({8-[(2R,3S)-3-(methanesulfonylmethyl)-2-methylazetidin-1-yl]-5-(propan-2-yl)-2,7-naphthyridin-3-yl}amino)pyrimidin-2-yl]-4-methylpiperidin-4-ol]
16 | ≤ 15 |  | ≤ 10 | CC(C)c1ccc(N2C[C@H](CS(C)(=O)=O)[C@H]2C)c2cnc(Nc3ccnc(N4CC[C@@H](OCCO)[C@@](C)(F)C4)n3)cc12 (single isomer, unassigned) [Compound 242]
17 | ≤ 15 |  | ≤ 10 | CC(C)c1ccc(N2CC(CS(C)(=O)=O)C2)c2cnc(Nc3ccnc(N4CC[C@@H](OCCO)[C@@H](F)C4)n3)cc12 [Compound 205, 2-{[(3S,4R)-3-fluoro-1-[4-({8-[3-(methanesulfonylmethyl)azetidin-1-yl]-5-(propan-2-yl)isoquinolin-3-yl}amino)pyrimidin-2-yl]piperidin-4-yl]oxy}ethan-1-ol]
18 | ≤ 15 |  | ≤ 10 | CC(C)c1ccc(N2C[C@H](CS(C)(=O)=O)[C@H]2C)c2cnc(Nc3ccnc(N4CC[C@@H](OCCN(C)C)[C@@H](F)C4)n3)cc12 [Compound 254, N-{2-[(3S,4R)-4-[2-(dimethylamino)ethoxy]-3-fluoropiperidin-1-yl]pyrimidin-4-yl}-8-[(2R,3S)-3-(methanesulfonylmethyl)-2-methylazetidin-1-yl]-5-(propan-2-yl)isoquinolin-3-amine]
